Values joined by “and” are separate entries in the source; they are usually repeats but may differ in a detail not shown here. Equal entries are not always repeated. Where two headings read alike, the source gives them in different places.
What was measured:
[1] = tested on: histone proteins of S. mansoni adult worm pairs; experiment: Western blot, histone acetylation (anti-acetylated lysine) in adult worm pairs; assay type: cell-based, Schistosoma mansoni; settings: 48 h and 72 h, partially lethal and sub-lethal doses
Procedure: Ten adult pairs were treated with selected HDAC inhibitors for 48 h or 72 h at partially lethal and sublethal concentrations. Compound concentrations were selected based on the viability curve, Trichostatin A (TSA), a pan-HDAC inhibitor, and NF2503 a SmHDAC8 inhibitor chemically characterized by the presence of a hydroxamate-based MBG (metal binding group) coupled to a tricyclic thieno[3,2-b]indole core as capping group, previously described were used as positive controls in the experiments; DMSO (vehicle) was the negative control. Parasites were processed as previously described and samples were analyzed by 15% SDS-PAGE, and immunoblotting was performed using α-tubulin DM1A (1:5000), α-acetylated-lysine (1:4000) and α-acetylated tubulin (1:3000) antibodies. A Chemidoc XRS Bio-Rad with a chemiluminescent camera and Bio-Rad ImageLab 4.0 software were used for the acquisition and analysis of images. Each Western blot analysis was calibrated by Ponceau staining.
TSA, a known pan- class I and class II HDAC -inhibitor, and NF2503, a HDAC inhibitor previously shown to impact histone acetylation in adult worm pairs were used as positive controls.
Fig 6 Effects of selected compounds on histones and tubulin acetylation. […]

[2] = tested on: S. mansoni newly transformed schistosoma (NTS); experiment: ATP-based luminescence (CellTiter-GLO) viability assay on NTS; assay type: cell-based
Procedure: (§1) Fig 3 Schistosome viability assays. Panel A: Representative dose-response curves of the inhibitors on NTS. The y-axis indicates the percentage of viability normalized against DMSO (100%) and gambogic acid 10 μM (0%). […] Panel B: dose-response curve of the inhibitors on adult schistosome worm pairs. DMSO (vehicle) was used as negative control (100% viability), the indicated compounds were assayed at 5 (full triangle) 10 (inverted full triangle), 20 (full square) and 50 μM (full circle). Data are expressed as a % severity score (viability) relative to DMSO. Each point represents the average ± standard deviation of three independent experiments.

[3] = set-up: method as in earlier work; settings: QikProp, ref [25], cited from earlier work; for %HOA predicted human oral absorption: 0 to 100% scale, >80% high; for QPlogS predicted aqueous solubility: log value, recommended -6.5-0.5; for SASA predicted total solvent accessible surface: recommended 300-1000, in Å2 (unit assumed); for QPlogP predicted octanol/water partition coefficient: recommended -2-6.5
hHDAC8 = settings: recombinant enzyme, previously reported; ref [25]; cited from earlier work
SmHDAC8 = target: T1, SmHDAC8 (Schistosoma mansoni, UniProt A5H660); experiment: Recombinant SmHDAC8 inhibition assay (Fluor de Lys); assay type: biochemical; settings: Fluor-de-Lys substrate 50 μM, inhibitor 25-0.04 μM, average of three experiments ± SD
T1 construct: made in house; host or cells: E. coli
T1 sequence (A5H660 1-440): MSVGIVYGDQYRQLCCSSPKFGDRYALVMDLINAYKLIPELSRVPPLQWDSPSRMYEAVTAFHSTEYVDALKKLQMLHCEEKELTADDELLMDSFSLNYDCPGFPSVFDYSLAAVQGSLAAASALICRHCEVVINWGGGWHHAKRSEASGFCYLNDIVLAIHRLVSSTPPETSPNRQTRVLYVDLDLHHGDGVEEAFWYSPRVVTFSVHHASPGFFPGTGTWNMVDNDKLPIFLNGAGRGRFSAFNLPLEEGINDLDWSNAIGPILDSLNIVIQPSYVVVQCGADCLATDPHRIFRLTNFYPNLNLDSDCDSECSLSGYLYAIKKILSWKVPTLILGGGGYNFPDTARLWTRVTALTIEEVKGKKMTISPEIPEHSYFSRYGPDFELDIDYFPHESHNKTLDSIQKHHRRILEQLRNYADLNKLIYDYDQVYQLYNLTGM
Procedure: SmHDAC8 protein was produced and purified by a method previously described by us. Inhibition assays of SmHDAC8 were performed as already described in previous publications. Briefly, the commercial Fluor de Lys kit (BML-KI178) of Enzo Life Science was used for testing the residual activity of the recombinant enzyme upon preincubation with each of the selected compounds. First the enzyme was preincubated with the selected compounds 15 min before substrate addition to the mixture. The Fluor de Lys substrate was used at 50 μM. Then, compounds, substrate, and enzyme were incubated together, and the reaction was allowed to proceed for 1 h at 30°C; subsequently, 2 μM TSA within 50 μL of 1× Developer II was added, and the mixture was further incubated for 1 h at 30°C to quench the reaction. Fluorescence was measured in a plate reader (Varioskan Lux, Thermo Fisher Scientific) with excitation at λ = 370 nm and emission at λ = 450 nm.

[4] = tested on: adult S. mansoni worm pairs; experiment: Viability assay on adult worm pairs (phenotype scoring 0-3); assay type: cell-based, Schistosoma mansoni; settings: for viability at 20 µM / viability at 50 µM: Schistosoma mansoni
Procedure: For studies on adult worm pairs, mice infected 7–8 weeks previously with double sex cercariae were euthanized with intraperitoneal injections of Tiletamine/Zolazepam ([…]) + Xylazine (100 mg/kg) and adult parasites were harvested by reversed perfusion of the hepatic portal system and mesenteric veins. Adult worms were cultured in DMEM containing phenol red and with 4500 mg/l glucose, 2 mM L-glutamine, 100 U/ml penicillin, 100 μg/ml streptomycin, 1x antibiotic-antimycotic reagent, and 10% heat inactivated FBS. Viability assays on adult worm pairs were based on a phenotyping scoring assessment as previously described. Briefly, five adult pairs were incubated with selected compounds in 3 ml of DMEM complete medium. For each compound, three experiments were performed, and compounds were given to parasites only once without medium addition and/or replacement. DMSO (vehicle)-treated worms were used as control samples. Viability was monitored under a Leica Model MZ12 stereomicroscope for 7 days and viability scores (0–3) were assigned. […] For each sample, the total score was determined by the ratio of the sum of worm scores for the total number of worms.
as §1
Parasites were treated initially at 20 μM and 50 μM; their impact on viability was monitored for 7 days upon treatment. […] Viability of each schistosome was scored from 3 (no effect) to 0 (severe effects) by assigning daily worm phenotype scores (plate attachment, movement, color, gut peristalsis, tegument damage) as previously described (Fig 3B).

[5] = 24 h, 20 µM, day 1, read-out: % viability of adult worm pairs relative to DMSO, Mean
[6] = 24 h, 20 µM, day 1, read-out: % viability of adult worm pairs relative to DMSO, single experiments
[7] = 24 h, 50 µM, day 1, read-out: % viability of adult worm pairs relative to DMSO, Mean
[8] = 72 h, 20 µM, day 3, read-out: % viability of adult worm pairs relative to DMSO, Mean
[9] = 72 h, 20 µM, day 3, read-out: % viability of adult worm pairs relative to DMSO, single experiments
[10] = 72 h, 50 µM, day 3, read-out: % viability of adult worm pairs relative to DMSO, Mean
[11] = 120 h, 20 µM, day 5, read-out: % viability of adult worm pairs relative to DMSO, Mean
[12] = 120 h, 20 µM, day 5, read-out: % viability of adult worm pairs relative to DMSO, single experiments
[13] = 120 h, 50 µM, day 5, read-out: % viability of adult worm pairs relative to DMSO, Mean
[14] = 168 h, 20 µM, day 7, read-out: % viability of adult worm pairs relative to DMSO, Mean
[15] = 168 h, 20 µM, day 7, read-out: % viability of adult worm pairs relative to DMSO, single experiments
[16] = 168 h, 50 µM, day 7, read-out: % viability of adult worm pairs relative to DMSO, Mean

Compound	histone acetylation vs vehicle (DMSO) [1]	%HOA predicted human oral absorption [3] [%]	QPlogS predicted aqueous solubility [3] [mol/dm^3]	SASA predicted total solvent accessible surface [3]	QPlogP predicted octanol/water partition coefficient [3]	IC50 (hHDAC8) [µM]	IC50 (SmHDAC8) [µM]	% viability of adult worm pairs relative to DMSO, single experiments ([4]; 20 µM, day 1, 20 µM)	% viability of adult worm pairs relative to DMSO, single experiments ([4]; 20 µM, day 3, 20 µM)	% viability of adult worm pairs relative to DMSO, single experiments ([4]; 20 µM, day 5, 20 µM)	% viability of adult worm pairs relative to DMSO, single experiments ([4]; 20 µM, day 7, 20 µM)	% viability of adult worm pairs relative to DMSO, single experiments ([4]; 50 µM, day 3, 50 µM)	viability at 20 µM [4, 5] [%]	viability at 20 µM [4, 6] [%]	viability at 50 µM [4, 7] [%]	viability at 20 µM [4, 8] [%]	viability at 20 µM [4, 9] [%]	viability at 50 µM [4, 10] [%]	viability at 20 µM [4, 11] [%]	viability at 20 µM [4, 12] [%]	also measured
Cn1c(=O)c(OCc2ccc(C(=O)NO)cc2)c(C2CCCCC2)c2ccccc21 [NF2836]	only slightly impacts histone acetylation	87.94	-5.04	684.14	3.01	1.6 ± 0.3	2.3 ± 0.8	100%	100% and 96%	100% and 96%	100%	80% and 60% and 92.59% and 77%	94.3	83	62.1	98.7	100	77.4	98.7	100	LD50 on NTS, average +/- SD ([2]; 72 h, 0.7-100 μM, three experiments): 31.2 ± 11.3 µM; % viability of adult worm pairs relative to DMSO, single experiments ([4]; 50 µM, day 5, 50 µM): 63% and 43% and 42.59% and 67%; viability at 50 µM [4, 13]: 53.9%; viability at 20 µM [4, 14]: 94.3%; viability at 20 µM [4, 15]: 100%; viability at 50 µM [4, 16]: 53.2%
CCN(CC)Cc1ccc(Cn2c(=O)c(OCc3ccc(C(=O)NO)cc3)c(-c3cccnc3)c3ccccc32)cc1 [NF2838]	more strongly impact histone acetylation	64.57	-4.58	849.77	3.29	0.5 ± 0.2	0.4 ± 0.03	93.3% and 96%	86.6% and 96%	90% and 100%	85% and 100%	67% and 70%	96.4	100	67.5	94.2	100	58.5	96.7	100	Normalization: NTS viability normalized against DMSO (100%) and GA (0%) ([2]; log conc. (µM) 1.4, 72 h, single wells): 107.9%; % viability of adult worm pairs relative to DMSO, single experiments ([4]; 50 µM, day 1, 50 µM): 62% and 73%; % viability of adult worm pairs relative to DMSO, single experiments ([4]; 50 µM, day 7, 50 µM): 67%; viability at 50 µM ([4]; 72 h, 50 µM, day 3, read-out: % viability of adult worm pairs relative to DMSO, single experiments): 50%; viability at 50 µM [4, 13]: 50%; viability at 20 µM [4, 14]: 95%; viability at 20 µM [4, 15]: 100%; viability at 50 µM [4, 16]: 58.5%; viability at 50 µM ([4]; 168 h, 50 µM, day 7, read-out: % viability of adult worm pairs relative to DMSO, single experiments): 50%
